# In patent US10214478B2, “Amantadine nitrate compounds with neural protective effect, and preparation and medical use thereof” (GUANGZHOU MAGPIE PHARMACEUTICALS CO., LTD., priority 2016, dated 2019):
# Tested on: primary cerebellum granule cells of rats
# Assay: Protective effects of compounds on primary cerebellum granule cells of rats (glutamate-induced excitotoxic injury, MTT)
# Type: cell-based
# Details: pre-protection 2 h, 200 iM glutamate 24 h, MTT cell viability; read-out: EC50, protective effects of the compounds on rat's nerve cells
# Description: Isolated primary cerebellum granule cells of infant rats were inoculated in 96-well plates with 1.2×10^5/well by using 10% FBS+25 mM KCl+2 mM Glutamine+1% of double-antibody BME medium. After 24 hours, cytarabine with a final concentration of 10 iM was added to inhibit the proliferation of neurogliocyte cells. After the day 4, glucose with the final concentration of 5 mM was added every four days to complement energy metabolism and water evaporation of cells. The materials were placed in a cell incubator (37° C., 5% CO2) to be cultured for 10 days. […] After pre-protection for 2 h, 200 iM of glutamate was added to induce cell damage for 24 h, and then MTT was added to culture for 4 h. The supernatant fraction was sucked, and 150 iL of DMSO was added to each well for dissolving. After blending with shaking, the light absorption values under 570 nm wavelength was measured with a microplate reader, and the viability of cells was calculated. Cell viability (%)=absorbance of different groups/absorbance of the normal control group×100%.
row,Structure (SMILES),EC50 [µM]
1,CC12CC3CC(N)(C1)CC(O[N+](=O)[O-])(C3)C2 (stereo not shown) [NM-001],24.6
2,CCC12CC3CC(N)(C1)CC(O[N+](=O)[O-])(C3)C2 (stereo not shown) [NM-003],15.4
3,CCC12CC3CC(N)(C1)CC(CO[N+](=O)[O-])(C3)C2 (stereo not shown) [NM-004],8.12
4,CCC12CC3CC(N)(C1)CC(CCCO[N+](=O)[O-])(C3)C2 (stereo not shown) [NM-005],6.06
5,NC12CC3CC(CCO[N+](=O)[O-])(C1)CC(CCO[N+](=O)[O-])(C3)C2 [NM-009],5.2
6,CC(CO[N+](=O)[O-])CC12CC3CC(N)(C1)CC(CC(C)CO[N+](=O)[O-])(C3)C2 (stereo not shown) [NM-012],9.3
7,"CCC12CC3(N)CC(CC)(C1)CC(O[N+](=O)[O-])(C3)C2 [YQW-036, reference compound]",31.4
